In article PMC8102066 (eLife, 2021):
Values joined by “and” are separate entries in the source; they are usually repeats but may differ in a detail not shown here. Identical values can stand only once.

Assays:
mGluR3-C127A = mGluR3-C127A (Rattus norvegicus, UniProt P31422, C127A); assay: SiMPull subunit counting in the presence of ligands
mGluR3-I788A = mGluR3-I788A (Rattus norvegicus, UniProt P31422, I788A); assay: Calcium imaging in HEK 293 T cells; format: cell-based; parameters: we performed calcium imaging experiments with mutations in the full-length mGluR2 background; expressed in transfected cells; host or cells: HEK 293 T; Calcium response amplitude: scale not given here; settings: for Calcium response amplitude: mGluR3-I788A
mGluR3-I788A, sequence (P31422 23-879 I788A): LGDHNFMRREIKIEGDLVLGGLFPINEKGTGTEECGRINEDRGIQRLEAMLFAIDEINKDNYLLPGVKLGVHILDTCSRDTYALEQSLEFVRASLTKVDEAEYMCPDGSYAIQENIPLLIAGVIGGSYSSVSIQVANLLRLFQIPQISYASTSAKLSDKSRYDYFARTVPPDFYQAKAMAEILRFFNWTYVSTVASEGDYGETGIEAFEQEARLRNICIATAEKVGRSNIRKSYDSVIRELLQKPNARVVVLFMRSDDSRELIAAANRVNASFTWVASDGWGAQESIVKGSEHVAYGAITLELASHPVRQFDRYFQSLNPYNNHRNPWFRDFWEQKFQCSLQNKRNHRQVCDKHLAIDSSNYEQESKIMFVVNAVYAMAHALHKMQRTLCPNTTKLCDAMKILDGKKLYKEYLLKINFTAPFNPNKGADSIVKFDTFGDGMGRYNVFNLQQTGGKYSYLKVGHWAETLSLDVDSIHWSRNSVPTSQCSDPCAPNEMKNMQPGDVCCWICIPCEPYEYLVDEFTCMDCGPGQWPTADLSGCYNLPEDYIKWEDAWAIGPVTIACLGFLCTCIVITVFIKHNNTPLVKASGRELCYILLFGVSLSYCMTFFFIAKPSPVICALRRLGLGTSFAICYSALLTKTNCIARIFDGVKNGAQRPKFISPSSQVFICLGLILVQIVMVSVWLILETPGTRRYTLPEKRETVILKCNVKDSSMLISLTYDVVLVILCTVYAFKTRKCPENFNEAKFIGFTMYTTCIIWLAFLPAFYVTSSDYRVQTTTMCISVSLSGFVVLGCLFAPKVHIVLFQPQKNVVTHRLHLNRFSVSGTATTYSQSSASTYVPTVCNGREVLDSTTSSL
Procedure: Approximately 30 ROIs were analyzed per movie.

mGluR3-F690A = mGluR3-F690A (Rattus norvegicus, UniProt P31422, F690A); assay: Calcium imaging in HEK 293 T cells; settings: for Calcium response amplitude: mGluR3-F681A
mGluR3-F690A, sequence (P31422 23-879 F690A): as the sequence (P31422 23-879 I788A) above, with F668A, A766I counted along it

mGluR2-C121A-I779A = target: T1, mGluR2-C121A-I779A (Rattus norvegicus, UniProt P31421, C121A/I779A); assay: SiMPull subunit counting in the presence of ligands; settings: SNAP-mGluR2-C121A-I779A in presence of the ligand; single replicates per experiment day
T1 construct: expressed in transfected cells; host or cells: HEK 293 T (detergent lysate, pulled down by anti-HA antibody)
T1 sequence (P31421 19-872 C121A/I779A): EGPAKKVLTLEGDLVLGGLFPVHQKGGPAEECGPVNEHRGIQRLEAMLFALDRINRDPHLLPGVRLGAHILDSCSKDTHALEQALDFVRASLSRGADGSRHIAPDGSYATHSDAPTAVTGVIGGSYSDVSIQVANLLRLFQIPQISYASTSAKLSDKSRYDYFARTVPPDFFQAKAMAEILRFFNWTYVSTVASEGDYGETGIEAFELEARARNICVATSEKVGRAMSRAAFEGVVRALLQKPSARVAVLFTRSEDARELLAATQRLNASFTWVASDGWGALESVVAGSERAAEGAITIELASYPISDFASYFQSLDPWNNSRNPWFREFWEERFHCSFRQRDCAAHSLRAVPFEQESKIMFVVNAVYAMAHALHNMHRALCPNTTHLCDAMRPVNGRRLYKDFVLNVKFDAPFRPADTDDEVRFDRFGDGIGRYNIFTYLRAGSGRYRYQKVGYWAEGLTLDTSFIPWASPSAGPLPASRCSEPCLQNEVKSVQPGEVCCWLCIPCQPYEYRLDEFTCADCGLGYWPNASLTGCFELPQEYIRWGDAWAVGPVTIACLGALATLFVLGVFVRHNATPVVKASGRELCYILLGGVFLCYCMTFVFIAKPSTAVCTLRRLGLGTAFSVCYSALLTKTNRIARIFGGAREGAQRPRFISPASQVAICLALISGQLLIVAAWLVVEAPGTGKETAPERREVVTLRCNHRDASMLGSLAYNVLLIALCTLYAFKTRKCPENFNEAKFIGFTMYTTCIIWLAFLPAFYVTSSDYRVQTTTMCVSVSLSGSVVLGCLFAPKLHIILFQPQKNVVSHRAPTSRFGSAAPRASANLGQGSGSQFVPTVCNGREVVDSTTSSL

mGluR3 [1] = target: T2, mGluR3 (Rattus norvegicus, UniProt P31422); assay: Calcium imaging (G protein chimera, GCaMP6f) in HEK 293 T cells
T2 sequence (P31422 23-879): as the sequence (P31422 23-879 I788A) above, with A766I counted along it

mGluR3 [2] = target: mGluR3 (Rattus norvegicus, UniProt P31422, INS669ASEIGTGFPFDPHYVEVLGERMHYVDVGPRDGTPVLFLHGNPTSSYVWRNIIPHVAPTHRCIAPDLIGMGKSDKPDLGYFFDDHVRFMDAFIEALGLEEVVLVIHDWGSALGFHWAKRNPERVKGIAFMEFIRPIPTWDEWPEFARETFQAFRTTDVGRKLIIDQNVFIEGTLPMGVVRPLTEVEMDHYREPFLNPVDREPLWRFPNELPIAGEPANIVALVEEYMDWLHQSPVPKLLFWGTPGVLIPPAEAARLAKSLPNCKAVDIGPGLNLLQEDNPDLIGSEIARWLSTLEISGLE); assay: Inter-TMD FRET sensor (HaloTag in ICL2), live cells; settings: for FRET response amplitude: mGluR3, inter-TMD FRET;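 for all read-outs here: receptor HaloTag labeled with JF549 donor and JF646 acceptor (1:3), FRET taken as acceptor over summed donor plus acceptor fluorescence intensity, imaged at room temperature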
UniProt P31422, sequence (P31422 with tags, fused parts or gaps with the stated changes): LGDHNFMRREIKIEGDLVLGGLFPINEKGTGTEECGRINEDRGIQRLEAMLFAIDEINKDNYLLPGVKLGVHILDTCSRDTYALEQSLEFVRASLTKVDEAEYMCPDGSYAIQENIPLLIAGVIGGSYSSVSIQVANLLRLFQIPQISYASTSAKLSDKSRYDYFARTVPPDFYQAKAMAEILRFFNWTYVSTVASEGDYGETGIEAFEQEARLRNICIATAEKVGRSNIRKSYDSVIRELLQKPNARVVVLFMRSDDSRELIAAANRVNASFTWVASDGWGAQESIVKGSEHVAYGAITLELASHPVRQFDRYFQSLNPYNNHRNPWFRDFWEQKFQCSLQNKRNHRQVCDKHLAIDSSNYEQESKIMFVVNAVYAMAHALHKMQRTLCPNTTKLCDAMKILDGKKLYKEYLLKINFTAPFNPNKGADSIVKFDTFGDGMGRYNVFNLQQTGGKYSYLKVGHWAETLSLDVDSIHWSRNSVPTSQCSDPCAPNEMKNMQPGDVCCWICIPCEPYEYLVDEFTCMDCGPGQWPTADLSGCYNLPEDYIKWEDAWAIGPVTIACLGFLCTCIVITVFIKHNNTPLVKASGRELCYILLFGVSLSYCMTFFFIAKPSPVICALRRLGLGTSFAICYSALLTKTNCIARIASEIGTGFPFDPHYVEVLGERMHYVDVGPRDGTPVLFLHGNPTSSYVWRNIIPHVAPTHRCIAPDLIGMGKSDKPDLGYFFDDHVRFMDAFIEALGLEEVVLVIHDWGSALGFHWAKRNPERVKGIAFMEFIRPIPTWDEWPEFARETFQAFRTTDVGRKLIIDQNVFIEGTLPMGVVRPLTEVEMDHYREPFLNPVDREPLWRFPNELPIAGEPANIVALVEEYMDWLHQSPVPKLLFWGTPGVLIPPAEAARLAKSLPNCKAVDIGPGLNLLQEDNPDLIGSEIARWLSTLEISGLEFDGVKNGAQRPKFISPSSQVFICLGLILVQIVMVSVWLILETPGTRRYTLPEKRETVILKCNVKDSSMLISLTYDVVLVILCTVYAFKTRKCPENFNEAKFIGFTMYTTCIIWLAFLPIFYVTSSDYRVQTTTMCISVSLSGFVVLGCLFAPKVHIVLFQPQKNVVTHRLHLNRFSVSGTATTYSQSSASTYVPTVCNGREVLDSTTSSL

mGluR2-C121A = target: T3, mGluR2-C121A (Rattus norvegicus, UniProt P31421, C121A); assay: SiMPull subunit counting in the presence of ligands; settings: SNAP-mGluR2-C121A in presence of the ligand; single replicates per experiment day
T3 construct: expressed in transfected cells; host or cells: HEK 293 T (detergent lysate, pulled down by anti-HA antibody)
T3 sequence (P31421 19-872 C121A): as the sequence (P31421 19-872 C121A/I779A) above, with A761I counted along it

mGluR3 [3] = target: T2, mGluR3; assay: Inter-LBD FRET (N-terminal SNAP-tags), live cells; settings: for FRET response amplitude: mGluR3, inter-LBD FRET
mGluR3-3xTM4 = mGluR3-3xTM4 (Rattus norvegicus, UniProt P31422, F690A/G694A/INS669ASEIGTGFPFDPHYVEVLGERMHYVDVGPRDGTPVLFLHGNPTSSYVWRNIIPHVAPTHRCIAPDLIGMGKSDKPDLGYFFDDHVRFMDAFIEALGLEEVVLVIHDWGSALGFHWAKRNPERVKGIAFMEFIRPIPTWDEWPEFARETFQAFRTTDVGRKLIIDQNVFIEGTLPMGVVRPLTEVEMDHYREPFLNPVDREPLWRFPNELPIAGEPANIVALVEEYMDWLHQSPVPKLLFWGTPGVLIPPAEAARLAKSLPNCKAVDIGPGLNLLQEDNPDLIGSEIARWLSTLEISGLE/S686A); assay: Inter-TMD FRET sensor (HaloTag in ICL2), live cells; settings: for FRET response amplitude: mGluR3-3xTM4, inter-TMD FRET
mGluR3-3xTM4, sequence (P31422 with tags, fused parts or gaps with the stated changes): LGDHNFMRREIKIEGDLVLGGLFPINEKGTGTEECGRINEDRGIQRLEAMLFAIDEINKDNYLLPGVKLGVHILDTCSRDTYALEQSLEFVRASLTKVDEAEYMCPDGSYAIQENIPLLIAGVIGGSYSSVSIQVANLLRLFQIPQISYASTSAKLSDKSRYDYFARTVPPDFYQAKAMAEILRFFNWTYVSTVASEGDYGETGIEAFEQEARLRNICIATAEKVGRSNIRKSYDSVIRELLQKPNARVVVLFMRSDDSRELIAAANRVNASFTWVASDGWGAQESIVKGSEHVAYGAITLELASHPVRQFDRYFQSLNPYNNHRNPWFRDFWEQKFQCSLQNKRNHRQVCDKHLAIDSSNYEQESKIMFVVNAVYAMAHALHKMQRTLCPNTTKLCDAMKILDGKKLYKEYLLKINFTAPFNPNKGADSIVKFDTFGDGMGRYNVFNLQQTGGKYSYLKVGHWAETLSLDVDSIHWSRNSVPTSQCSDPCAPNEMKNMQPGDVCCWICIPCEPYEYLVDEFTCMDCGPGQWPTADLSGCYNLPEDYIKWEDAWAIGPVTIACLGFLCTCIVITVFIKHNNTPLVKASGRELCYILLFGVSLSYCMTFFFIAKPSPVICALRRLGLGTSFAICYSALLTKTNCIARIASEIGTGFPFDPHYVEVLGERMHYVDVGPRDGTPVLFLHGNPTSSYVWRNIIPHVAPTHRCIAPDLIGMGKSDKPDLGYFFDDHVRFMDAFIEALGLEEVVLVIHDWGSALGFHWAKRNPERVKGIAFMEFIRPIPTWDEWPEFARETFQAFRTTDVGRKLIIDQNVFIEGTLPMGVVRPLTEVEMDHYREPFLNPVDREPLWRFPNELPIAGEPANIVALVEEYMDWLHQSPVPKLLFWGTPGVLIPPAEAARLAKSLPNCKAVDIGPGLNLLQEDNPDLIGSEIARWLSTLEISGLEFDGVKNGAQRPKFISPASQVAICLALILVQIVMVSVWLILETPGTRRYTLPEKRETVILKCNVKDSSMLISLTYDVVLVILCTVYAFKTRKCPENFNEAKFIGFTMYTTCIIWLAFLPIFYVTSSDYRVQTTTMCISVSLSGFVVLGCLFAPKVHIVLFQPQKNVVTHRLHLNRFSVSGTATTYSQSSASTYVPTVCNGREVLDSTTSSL

mGluR2-3xTM4 = mGluR2-3xTM4 (Rattus norvegicus, UniProt P31421, A677S/A681F/A685G); assay: Inter-LBD FRET (N-terminal SNAP-tags), live cells; settings: mGluR2-3xTM4, inter-LBD FRET
mGluR2-3xTM4, sequence (P31421 19-872 A677S/A681F/A685G): as the sequence (P31421 19-872 C121A/I779A) above, with A103C, A659S, A663F, A667G, A761I counted along it

[4] = read-out: Glutamate EC50, calcium imaging, normalized to saturating (1 mM) glutamate
[5] = read-out: Glutamate EC50, inter-TMD FRET, normalized to saturating (1 mM) glutamate, unit inferred

mGluR3-C127A, sequence (P31422 23-879 C127A): as the sequence (P31422 23-879 I788A) above, with C105A, A766I counted along it

N[C@@H](CCC(=O)O)C(=O)O [glutamate]
% Dimerization (mGluR3-C127A; SNAP-mGluR3-C127A in presence of the ligand, single replicates per experiment day): 83.23% and 72.86% and 68.26% and 70.70% and 67.67% and 71.63% | effect of ligand on dimerization (SiMPull) (mGluR3-C127A; saturating concentration): increased dimerization | Calcium response amplitude (mGluR3-I788A; Glutamate 10 nM): 0.00 | Calcium response amplitude (mGluR3-I788A; Glutamate 1 uM): 0.60 and 0.66 and 0.55 | Calcium response amplitude (mGluR3-I788A; Glutamate 10 uM): 0.97 and 1.00 and 0.86 | Calcium response amplitude (mGluR3-I788A; Glutamate 100 uM): 1.00 | Calcium response amplitude (mGluR3-I788A; Glutamate 1 mM): 1.00 | EC50 (mGluR3-I788A; read-out: Glutamate EC50, calcium imaging, normalized to saturating (1 mM) glutamate, unit inferred): 10430 ± 100 nM | Calcium response amplitude (mGluR3-F690A; Glutamate 10 nM): 0.00 | Calcium response amplitude (mGluR3-F690A; Glutamate 100 nM): 0.00 | Calcium response amplitude (mGluR3-F690A; Glutamate 3 uM): 0.33 and 0.27 | Calcium response amplitude (mGluR3-F690A; Glutamate 10 uM): 0.40 and 0.44 and 0.57 and 0.58 | Calcium response amplitude (mGluR3-F690A; Glutamate 100 uM): 1.00 and 0.86 | Calcium response amplitude (mGluR3-F690A; Glutamate 1 mM): 1.00 | EC50 (mGluR3-F690A; [4]): 9590 ± 60 nM | % Dimerization (mGluR2-C121A-I779A): 54.00% and 69.67% and 69.76% and 51.05% and 59.66% and 56.67% | Calcium response amplitude (mGluR3 [1]; Glutamate 1 nM, mGluR3): 0.00 | Calcium response amplitude (mGluR3 [1]; Glutamate 1 nM, normalized to 1 mM glutamate, replicates): 0.00 | Calcium response amplitude (mGluR3 [1]; Glutamate 10 nM, mGluR3): 0.00 | Calcium response amplitude (mGluR3 [1]; Glutamate 10 nM, normalized to 1 mM glutamate, replicates): 0.00 | Calcium response amplitude (mGluR3 [1]; Glutamate 100 nM, mGluR3): 0.23 | Calcium response amplitude (mGluR3 [1]; Glutamate 100 nM, normalized to 1 mM glutamate, replicates): 0.23 | Calcium response amplitude (mGluR3 [1]; Glutamate 1 uM, mGluR3): 0.61 and 0.64 and 0.67 and 0.55 | Calcium response amplitude (mGluR3 [1]; Glutamate 1 uM, normalized to 1 mM glutamate, replicates): 0.61 and 0.64 and 0.67 and 0.55 | Calcium response amplitude (mGluR3 [1]; Glutamate 2 uM, mGluR3): 0.66 and 0.77 | Calcium response amplitude (mGluR3 [1]; Glutamate 2 uM, normalized to 1 mM glutamate, replicates): 0.66 and 0.77 | Calcium response amplitude (mGluR3 [1]; Glutamate 3 uM, mGluR3): 0.83 and 0.79 | Calcium response amplitude (mGluR3 [1]; Glutamate 3 uM, normalized to 1 mM glutamate, replicates): 0.83 and 0.79 | Calcium response amplitude (mGluR3 [1]; Glutamate 5 uM, mGluR3): 0.89 and 0.95 and 0.77 | Calcium response amplitude (mGluR3 [1]; Glutamate 5 uM, normalized to 1 mM glutamate, replicates): 0.89 and 0.95 and 0.77 | Calcium response amplitude (mGluR3 [1]; Glutamate 10 uM, mGluR3): 0.99 and 0.95 and 0.92 | Calcium response amplitude (mGluR3 [1]; Glutamate 10 uM, normalized to 1 mM glutamate, replicates): 0.99 and 0.95 and 0.92 | Calcium response amplitude (mGluR3 [1]; Glutamate 1 mM, mGluR3): 1.00 | Calcium response amplitude (mGluR3 [1]; Glutamate 1 mM, normalized to 1 mM glutamate, replicates): 1.00 | EC50 (mGluR3 [1]; [4]): 560 ± 60 nM | FRET response amplitude (mGluR3 [2]; Glutamate 1 nM): 0.00 | FRET response amplitude (mGluR3 [2]; Glutamate 1 uM): 0.66 and 0.83 and 0.95 and 0.97 and 0.93 and 0.79 and 0.73 | FRET response amplitude (mGluR3 [2]; Glutamate 10 uM): 0.80 and 0.95 and 0.97 and 1.05 and 0.98 and 0.87 | FRET response amplitude (mGluR3 [2]; Glutamate 100 uM): 0.99 and 0.97 and 0.96 and 1.00 | FRET response amplitude (mGluR3 [2]; Glutamate 1 mM): 1.00 | EC50 (mGluR3 [2]; [5]): 230 ± 80 nM | % Dimerization (mGluR2-C121A): 86.45% and 81.10% and 91.37% and 96.00% and 70.30% and 76.67% | FRET response amplitude (mGluR3 [3]; Glutamate 1 nM): 0.00 | FRET response amplitude (mGluR3 [3]; Glutamate 10 nM): 0.00 | FRET response amplitude (mGluR3 [3]; Glutamate 1 uM): 0.66 and 0.53 | FRET response amplitude (mGluR3 [3]; Glutamate 3 uM): 1.00 and 0.63 | FRET response amplitude (mGluR3 [3]; Glutamate 10 uM): 1.00 and 0.86 | FRET response amplitude (mGluR3 [3]; Glutamate 100 uM): 1.00 | EC50 (mGluR3 [3]; read-out: Glutamate EC50, LBD FRET, normalized to saturating (1 mM) glutamate, unit inferred): 640 ± 100 nM | FRET response amplitude (mGluR3-3xTM4; Glutamate 1 nM): 0.00 | FRET response amplitude (mGluR3-3xTM4; Glutamate 100 nM): 0.20 and 0.12 and 0.17 and 0.16 and 0.13 and 0.21 | FRET response amplitude (mGluR3-3xTM4; Glutamate 1 uM): 0.69 and 0.42 and 0.65 and 0.66 | FRET response amplitude (mGluR3-3xTM4; Glutamate 10 uM): 0.75 and 0.99 and 0.89 | FRET response amplitude (mGluR3-3xTM4; Glutamate 100 uM): 0.80 and 0.96 | FRET response amplitude (mGluR3-3xTM4; Glutamate 1 mM): 1.00 | EC50 (mGluR3-3xTM4; [5]): 560 ± 100 nM | FRET response amplitude (mGluR2-3xTM4; Glutamate 10 nM): 0.00 | FRET response amplitude (mGluR2-3xTM4; Glutamate 100 nM): 0.00 | FRET response amplitude (mGluR2-3xTM4; Glutamate 3 uM): 0.10 | FRET response amplitude (mGluR2-3xTM4; Glutamate 10 uM): 0.49 and 0.37 | FRET response amplitude (mGluR2-3xTM4; Glutamate 100 uM): 1.00 and 0.97 | FRET response amplitude (mGluR2-3xTM4; Glutamate 1 mM): 1.00
